This assay deals with VEGF induced increases in intracellular calcium levels in HUVEC (human umbilical vein endothelial cells). Put plainly: VEGF Stimulated Ca++ Signal in vitro (FLIPR). It is filed as cell-based. The note with it: VEGF 5 ng/mL; for inhibition at 10 µM / pIC50: Homo sapiens; for pIC50: 0.01 to 10.0 μM. On the procedure:
VEGF Stimulated Ca^++ Signal in vitro
Automated FLIPR (Fluorometric Imaging Plate Reader) technology was used to screen for inhibitors of VEGF induced increases in intracellular calcium levels in fluorescent dye loaded endothelial cells. HUVEC (human umbilical vein endothelial cells) (Clonetics) were seeded in 96-well fibronectin coated black-walled plates overnight at 37° C./5%CO2. Cells were loaded with calcium indicator Fluo-4 for 45 minutes at 37° C. Cells were washed 4 times (Original Cell Wash, Labsystems) to remove extracellular dye. Test compounds were reconstituted in 100% DMSO and added to the cells to give a final DMSO concentration of 0.1%. For screening, cells were pre-incubated with test agents for 30 minutes, at a single concentration (10 μM) or at concentrations ranging from 0.01 to 10.0 μM followed by VEGF stimulation (5 ng/mL). Changes in fluorescence at 516 nm were measured simultaneously in all 96 wells using a cooled CCD camera. Data were generated by determining max-min fluorescence levels for unstimulated, stimulated, and drug treated samples. IC50 values for test compounds were calculated from % inhibition of VEGF stimulated responses in the absence of inhibitor.

pIC50: −log10 of the molar value.

Consider 19 molecules from patent US20030225152A1, “3-(Arylamino)methylene-1, 3-dihydro-2h-indol-2-ones as kinase inhibitors” (priority 2001, published 2003).

Take “3-[(Bis-trifluoromethyl-phenylamino)-methylene]-1,3-dihydro-indol-2-one [Example 46]”: the “VEGF Stimulated Ca^++ signal assay % inhibition @ 10 μM” value is −4.00%.

On to “3-[(Chloro-trifluoromethyl-phenylamino)-methylene]-1,3-dihydro-indol-2-one [Example 45]”, for which the “VEGF Stimulated Ca^++ signal assay % inhibition @ 10 μM” value is listed as 50.00%. Same read-out and setting: then “3-[(Fluoro-trifluoromethyl-phenylamino)-methylene]-1,3-dihydro-indol-2-one [Example 47]”, with −2.50%. As for “3-[(Methyl-trifluoromethyl-phenylamino)-methylene]-1,3-dihydro-indol-2-one [Example 56]”, the “VEGF Stimulated Ca^++ signal assay % inhibition @ 10 μM” value is given as 21.00%. The same measure, in the same setting: then “4-[(2-Oxo-1,2-dihydro-indol-3-ylidenemethyl)-amino]-phospate [Example 84]”, with 11.50%; and “5-Chloro-3-[(phenylamino)-methylene]-1,3-dihydro-indol-2-one benzothiazol-6-yl-amine [Example 101]”, with 22.00%. For the molecule `O=C1Nc2ccccc2C1=CNc1ccccc1` [Example 1, 3-Phenylaminomethylene-1,3-dihydro-indol-2-one], the inhibition (usually the drop in the measured response relative to a control, in per cent) at 10 µM was found to be 92% and the pIC50 (commonly the negative decadic logarithm of the IC50, by convention in mol/L) is 5.39. In the case of `O=C1Nc2ccccc2C1=CNc1cccc(Br)c1` [Example 2, 3-[(3-Bromo-phenylamino)-methylene]-1,3-dihydro-indol-2-one], the inhibition at 10 µM is -0.5%. Consider `O=C1Nc2ccccc2C1CNc1ccc(Br)cc1` (stereo not shown) [Example 3, 3-[(4-Bromo-phenylamino)-methyl]-1,3-dihydro-indol-2-one], for which the inhibition at 10 µM stood at 3.5%. The same measure, in the same setting: then `O=C1Nc2ccccc2C1CNc1cccc(Br)c1` (stereo not shown) [Example 4, 3-[(3-Bromo-phenylamino)-methyl]-1,3-dihydro-indol-2-one], with 16.5%.

With `CCOC(=O)c1ccc(NC=C2C(=O)Nc3ccccc32)cc1` [Example 8, 4-[(2-Oxo-1,3-dihydro-indol-3-ylididenemethyl)-amino]-benzoic acid ethyl ester], the “VEGF Stimulated Ca^++ signal assay % inhibition @ 10 μM” value stood at 9%.

On to `CCc1ccccc1NC=C1C(=O)Nc2ccccc21` [Example 9, 3-[(2-Ethyl-phenylamino)-methylene}-1,3-dihydro-indol-2-one], for which the inhibition at 10 µM turned out to be 13.5%. On to `Cc1ccc(NC=C2C(=O)Nc3ccccc32)cc1F` [Example 10, 3-[(3-Fluoro-4-methyl-phenylamino)-methylene]-1,3-dihydro-indol-2-one], for which the inhibition at 10 µM was found to be 46% and the pIC50 is at most 5.00. `Cc1c(F)cccc1NC=C1C(=O)Nc2ccccc21` [Example 11, 3-[(3-Fluoro-2-methyl-phenylamino)-methylene]-1,3-dihydro-indol-2-one]: the inhibition at 10 µM is -14%. Regarding `O=C1Nc2ccccc2C1=CNc1ccc(O)cc1` [Example 12, 3-[(4-Hydroxy-phenylamino)-methylene]-1,3-dihydro-indol-2-one], the inhibition at 10 µM is 94.2% and the pIC50 was 5.97. As for `O=C1Nc2ccccc2C1=CNc1ccc(O)c(Cl)c1` [Example 13, 3-[(3-Chloro-4-hydroxy-phenylamino)-methylene]-1,3-dihydro-indol-2-one], the inhibition at 10 µM was -12.5%. The same measure, in the same setting: then `Cc1cc(F)ccc1NC=C1C(=O)Nc2ccccc21` [Example 14, 3-[(4-Fluoro-2-methyl-phenylamino)-methylene]-1,3-dihydro-indol-2-one], with -14%; and `Cc1ccc(NC=C2C(=O)Nc3ccccc32)cc1` [Example 18, 3-(p-Tolylamino-methylene)-1,3-dihydro-indol-2-one], with 35.5%. The same measure, in the same setting: then `Cc1cc(C)cc(NC=C2C(=O)Nc3ccccc32)c1` [Example 19, 3-[(3,5-Dimethyl-phenylamino)-methylene]-1,3-dihydro-indol-2-one], with 14%.
